Experimental findings from ChEMBL document CHEMBL1125820, “Structure-activity relationship of mutagenic aromatic and heteroaromatic nitro compounds. Correlation with molecular orbital energies and hydrophobicity” (J Med Chem, 1991) are described below.

In data set [1] the test system is Salmonella typhimurium. Briefly: Mutagenic activity in an Ames test on Salmonella Typhimurium TA98; Activity is log of revertants/nmol. It is filed as functional, Salmonella enterica subsp. enterica serovar Typhimurium. Also on record: scale not given here. A general note: The Ames test uses bacterial strains that need an amino acid and regain growth without it when mutated back.

Data set [2] is described as follows: Partition coefficient (logP). As to conditions: octanol/water.

As usually defined, the logP is the decadic logarithm of the partition coefficient of the neutral form, usually between octanol and water. `O=C(/C=C/c1ccc([N+](=O)[O-])cc1)c1ccc([N+](=O)[O-])cc1` registered an Activity in data set [1] of -1.42. This molecule also returned a logP in data set [2] of 2.73.
In data set [1], `O=[N+]([O-])c1ccc(F)cc1` registered an Activity of -0.23. Also, the lipophilicity (logP) in data set [2] was 1.8.
Consider `O=[N+]([O-])c1c2ccccc2c2ccc3cccc4ccc1c2c43`, for which the Activity in data set [1] was 1.64. This molecule had a logP in data set [2] of 5.87.
As for `Nc1ccc(-c2cccc([N+](=O)[O-])c2)cc1`, in data set [1], the Activity was -1.52. The molecule further registered a lipophilicity (logP) in data set [2] of 2.68.
Consider `O=[N+]([O-])c1cc([N+](=O)[O-])c2ccccc2c1`, for which the Activity in data set [1] is reported as -0.05. In data set [2], this molecule had a lipophilicity (logP) of 2.83.
For `Nc1cccc(-c2ccc([N+](=O)[O-])cc2)c1`, the Activity in data set [1] was found to be 0.25. Moreover, in data set [2], the logP came out at 2.68.
Taken in the same sequence, the figures for `Nc1ccccc1-c1cccc([N+](=O)[O-])c1` were -1.52 and 2.68.
Taken in the same sequence, the figures for `C=Cc1ccc([N+](=O)[O-])cc1` were -1.3 and 2.61.
In turn, `O=[N+]([O-])c1ccc2[nH]c3ccccc3c2c1` registered an Activity in data set [1] of -0.7. Also, the logP in data set [2] came out at 3.51.
Taken in the same sequence, the figures for `O=[N+]([O-])c1ccc2c(c1)Cc1cc(F)ccc1-2` were 2.68 and 4.11.
In the case of `O=[N+]([O-])c1ccc2ccc3c([N+](=O)[O-])cc([N+](=O)[O-])c4ccc1c2c34`, in data set [1], the Activity is on record as 4.99. This molecule registered a logP in data set [2] of 4.18.
The corresponding values for `O=[N+]([O-])c1ccc2ccc3cc4ccccc4c4ccc1c2c34` are 2.63 and 5.87.
`O=[N+]([O-])c1ccc2cccc3c2c1CC3` showed an Activity in data set [1] of 1. This molecule came in with a logP in data set [2] of 3.81.
The corresponding values for `O=[N+]([O-])c1ccc2c(c1)Cc1cccc([N+](=O)[O-])c1-2` are 3.2 and 3.71.
The corresponding values for `O=[N+]([O-])c1cc(F)ccc1F` are -0.79 and 1.89.
For `O=[N+]([O-])c1ccc2c(c1)Cc1cc(Cl)ccc1-2`, the Activity in data set [1] is given as 3.11. In addition, the logP in data set [2] came out at 4.68.
Regarding `CN1Cc2cc([N+](=O)[O-])ccc2N1`, the Activity in data set [1] is on record as -1.1. The lipophilicity (logP) in data set [2] was found to be 1.77.
The corresponding values for `O=[N+]([O-])c1ccc2c3c([N+](=O)[O-])ccc4ccc5ccc6ccc1c2c6c5c43` are 4.33 and 6.07.
In data set [1], `Cc1ccc2c(c1)Cc1cc([N+](=O)[O-])ccc1-2` had an Activity of 2.36. The molecule also registered a logP in data set [2] of 4.62.
In the case of `O=[N+]([O-])c1ccc2c3c(ccc([N+](=O)[O-])c13)-c1ccccc1-2`, the Activity in data set [1] is listed as 3.62. The same molecule came in with a logP in data set [2] of 4.44.
As for `O=[N+]([O-])c1cc2ccccc2c2ccccc12`, the Activity in data set [1] came out at 2.25. The molecule also showed a logP in data set [2] of 4.23.
In data set [1], `O=[N+]([O-])c1cc2c3c(cccc3c1[N+](=O)[O-])-c1ccccc1-2` came in with an Activity of 2.62. In addition, the logP in data set [2] was found to be 4.44.
The corresponding values for `O=[N+]([O-])C1=CC2Nc3ccc([N+](=O)[O-])cc3NC2C=C1` (stereo unspecified) are 4.34 and 2.29.
The corresponding values for `O=[N+]([O-])c1ccc2ccc3cccc4c5c(c1c2c34)CCCC5` are 0.7 and 6.26.
In data set [1], `CN1Cc2ccc([N+](=O)[O-])cc2N1` yielded an Activity of -0.41. Moreover, the logP in data set [2] turned out to be 1.77.
The corresponding values for `O=[N+]([O-])c1cc2c(cc1Cl)Oc1cc(Cl)c(Cl)cc1O2` are -0.53 and 6.68.
The corresponding values for `O=[N+]([O-])c1ccc2c(ccc3c4ccccc4ccc23)c1` are -0.22 and 5.41.
The corresponding values for `O=[N+]([O-])c1cc2c3c(cccc3c1)-c1ccccc1-2` are 3.01 and 4.69.
As for `O=[N+]([O-])C1=Cc2c3c1cccc3cc1ccc3ccccc3c21`, in data set [1], the Activity is 0.26. The molecule further registered a logP in data set [2] of 5.07.
Taken in the same sequence, the figures for `Cc1cc2ccccc2cc1[N+](=O)[O-]` were 0 and 3.43.
In data set [1], `CC(=O)Nc1ccc2c(c1)Cc1cc([N+](=O)[O-])ccc1-2` returned an Activity of 2.85. Besides, the logP in data set [2] was determined as 3.08.
Taken in the same sequence, the figures for `O=[N+]([O-])c1cc2c([N+](=O)[O-])ccc3c2c(c1[N+](=O)[O-])-c1ccccc1-3` were 3.56 and 4.18.
In the case of `O=[N+]([O-])c1cccc2c([N+](=O)[O-])cccc12`, in data set [1], the Activity was determined as 0.52. In data set [2], this molecule yielded a logP of 2.58.
The corresponding values for `Cn1ncc2cc([N+](=O)[O-])ccc21` are -0.82 and 1.77.
The corresponding values for `Cc1ccccc1-c1ccc([N+](=O)[O-])cc1` are -0.23 and 4.27.
The corresponding values for `O=[N+]([O-])c1ccc2ccc3ccc(O)c4ccc1c2c34` are 1.49 and 4.19.
`O=[N+]([O-])c1ccc2c3ccccc3c3c([N+](=O)[O-])ccc4ccc1c2c43` came in with an Activity in data set [1] of 1.99. In data set [2], the logP came out at 5.61.
Taken in the same sequence, the figures for `O=[N+]([O-])c1cc2c3c(c1)CCc1cccc(c1-3)CC2` were 1.58 and 5.28.
Taken in the same sequence, the figures for `CCOc1ccccc1[N+](=O)[O-]` were -2.22 and 2.35.
On to `O=[N+]([O-])c1c2ccccc2cc2c1ccc1ccccc12`, for which, in data set [1], the Activity is reported as -0.52. This molecule came in with a logP in data set [2] of 5.41.
The corresponding values for `O=[N+]([O-])c1ccc2c(c1)NCC2` are -0.48 and 1.92.
The corresponding values for `O=[N+]([O-])c1ccc2ccc3c([N+](=O)[O-])ccc4ccc1c2c43` are 5.06 and 4.44.
`O=[N+]([O-])c1ccc(-c2cccc([N+](=O)[O-])c2)cc1` displayed an Activity in data set [1] of 0.23. In data set [2], this molecule gave a logP of 3.52.
In turn, `Nc1cccc(-c2ccccc2[N+](=O)[O-])c1` came in with an Activity in data set [1] of -2. For the same molecule, the logP in data set [2] came out at 2.68.
Taken in the same sequence, the figures for `O=[N+]([O-])c1ccc2ccc3cccc4cc(O)c1c2c34` were 1.89 and 4.34.
Taken in the same sequence, the figures for `O=[N+]([O-])C1=CC=CC2Nc3cccc([N+](=O)[O-])c3NC12` (stereo unspecified) were 1.26 and 2.29.
The corresponding values for `O=Cc1ccc([N+](=O)[O-])o1` are 0.64 and 1.01.
As for `Nc1ccccc1-c1ccc([N+](=O)[O-])cc1`, in data set [1], the Activity is listed as -1.7. Moreover, in data set [2], the logP worked out at 2.68.
The corresponding values for `O=[N+]([O-])c1ccc2c(c1)Cc1cc(I)ccc1-2` are 2.97 and 5.09.
The corresponding values for `O=[N+]([O-])c1cccc2cnccc12` are -1.55 and 1.65.
The corresponding values for `O=[N+]([O-])C1=Cc2cc3cc4ccccc4cc3c3cccc1c23` are 0.67 and 5.07.
Turning to `O=[N+]([O-])c1cccc2c1-c1cccc3c([N+](=O)[O-])ccc-2c13`, the Activity in data set [1] is listed as 5.09. The molecule also returned a logP in data set [2] of 4.44.
Taken in the same sequence, the figures for `O=[N+]([O-])c1cc([N+](=O)[O-])c2c3c(c4cccc5ccc1c2c54)CCCC3` were 2.41 and 6.01.
`O=[N+]([O-])c1ccc2ccc3c4ccccc4cc4ccc1c2c43` yielded an Activity in data set [1] of 2.82. Also, in data set [2], the logP was 5.87.
In data set [1], `O=C(Nc1ccc2c(c1)Cc1cc([N+](=O)[O-])ccc1-2)C(F)(F)F` gave an Activity of 2.81. The molecule also returned a logP in data set [2] of 4.23.
Taken in the same sequence, the figures for `O=[N+]([O-])c1ccc2c3ccc([N+](=O)[O-])c4ccc5ccc6ccc1c2c6c5c43` were 3.6 and 6.07.
Taken in the same sequence, the figures for `Cn1c([N+](=O)[O-])nc2ccccc21` were 2.54 and 1.58.
Taken in the same sequence, the figures for `O=[N+]([O-])c1cccc2[nH]c3ccccc3c12` were -2 and 3.51.
The molecule `Nc1ccc([N+](=O)[O-])cc1[N+](=O)[O-]` displayed an Activity in data set [1] of -1.74. In data set [2], the logP was 1.84.
`O=[N+]([O-])c1ccc(Cl)c(Cl)c1Cl` came in with an Activity in data set [1] of -2.94. This molecule had a logP in data set [2] of 3.61.
Taken in the same sequence, the figures for `O=C1c2ccccc2-c2cc([N+](=O)[O-])ccc21` were 2.13 and 3.06.
Taken in the same sequence, the figures for `O=[N+]([O-])c1cc2ccc3cccc4ccc(c1)c2c34` were 3.35 and 4.69.
The corresponding values for `O=[N+]([O-])C1=Cc2ccc3ccc4cccc5cc1c2c3c45` are 0.77 and 4.35.
Molecule `O=[N+]([O-])c1ccc2c(c1)Cc1cc(Br)ccc1-2` returned an Activity in data set [1] of 3.06. The molecule further returned a logP in data set [2] of 4.83.
The corresponding values for `O=[N+]([O-])C1Cc2cccc3cccc1c23` (stereo unspecified) are 1.77 and 2.72.
Taken in the same sequence, the figures for `O=[N+]([O-])c1c(O)cc2cccc3c2c1-c1ccccc1-3` were 2.26 and 4.66.
Taken in the same sequence, the figures for `O=[N+]([O-])c1cc2c3c(ccc4cccc(c43)CC2)c1` were 3.27 and 4.99.
The molecule `O=[N+]([O-])c1ccc2c3c(cccc13)CC2` gave an Activity in data set [1] of 0.58. In data set [2], this molecule yielded a logP of 3.85.
The molecule `O=[N+]([O-])c1ccc2c(c1)-c1cccc3cccc-2c13` registered an Activity in data set [1] of 4.05. The logP in data set [2] was determined as 4.69.
The corresponding values for `O=[N+]([O-])c1cc2c3c(cc([N+](=O)[O-])c([N+](=O)[O-])c3c1)-c1ccccc1-2` are 3.44 and 4.18.
The corresponding values for `O=[N+]([O-])c1ccc2cn[nH]c2c1` are 0.66 and 2.06.
Regarding `O=[N+]([O-])c1ccc(-c2ccc([N+](=O)[O-])cc2)cc1`, the Activity in data set [1] is given as 1.17. The same molecule gave a logP in data set [2] of 3.52.
Taken in the same sequence, the figures for `O=[N+]([O-])c1cc2c3ccccc3ccc2c2ccccc12` were 1.75 and 5.41.
